In patent US7563781B2, “Triazolopyrimidine derivatives” (Janssen Pharmaceutica NV, priority 2006, dated 2009):

Assays:
[1] = biological target: T1, Focal Adhesion Kinase (full-length Flag-tagged human FAK) (Homo sapiens, UniProt Q05397); test: in vitro FAK ELISA kinase assay; format: biochemical; settings: compound 10 uM; ATP 2 uM; read-out: FAK % Inhib ave: 10 uM
T1 construct: a purified recombinant full-length Flag-tagged human FAK protein; Flag; made in house; host or cells: baculovirus infected insect cells
Procedure, shortened: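 Plate-coated GST fusion of the 73-residue region around Tyr397 phosphorylated by full-length Flag-tagged human FAK from baculovirus-infected insect cells, with 2 μM ATP in Mg/Mn HEPES pH 7.5, 1 h at 30 °C. Phosphotyrosine detected by HRP-anti-pTyr ELISA with TMB read-out. Compounds screened at 10 μM or titrated from 50 μM in half-log steps for IC50, BSA-substrate background subtracted.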

[2] = biological target: T2, CAK complex (human Cdk7, human Cyclin H, MAT-1) (Homo sapiens, UniProt P50613); test: in vitro time-resolved-fluorescence assay for the CAK kinase activity; format: biochemical; settings: compound 20 uM; read-out: CAK % inhib; 20 uM
T2 construct: made in house; host or cells: SF-900 insect cells co-infected with Flag-Cdk7 and Bab-Cyclin H baculoviruses
Procedure, shortened: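 Kinase activity of the human CAK complex (Flag-tagged Cdk7, Cyclin H, MAT-1), purified from co-infected SF-900 insect cells by Flag-M2 immunoaffinity, was measured by time-resolved fluorescence. In black glutathione-coated 96-well plates, 500 ng GST-CTD substrate with 22 uM ATP was mixed with compound in 30% DMSO/25 mM Hepes and 250 ng CAK. Plates were incubated 20 minutes at 30° C, then stopped with EDTA, bound overnight and washed. A Europium-labeled antibody detected serine-phosphorylated CTD.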

T2 sequence (P50613 with tags, fused parts or gaps): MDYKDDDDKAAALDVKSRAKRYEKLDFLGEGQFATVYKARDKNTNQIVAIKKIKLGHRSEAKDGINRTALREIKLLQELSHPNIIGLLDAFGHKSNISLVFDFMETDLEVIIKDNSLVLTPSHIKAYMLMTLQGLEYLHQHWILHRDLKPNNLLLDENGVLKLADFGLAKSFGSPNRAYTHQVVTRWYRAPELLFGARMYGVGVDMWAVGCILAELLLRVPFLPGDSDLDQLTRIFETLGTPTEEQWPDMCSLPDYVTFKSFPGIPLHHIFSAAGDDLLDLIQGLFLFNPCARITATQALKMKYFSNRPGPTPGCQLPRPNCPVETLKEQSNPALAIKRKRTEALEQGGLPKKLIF
T2 sequence (as listed by the source partner): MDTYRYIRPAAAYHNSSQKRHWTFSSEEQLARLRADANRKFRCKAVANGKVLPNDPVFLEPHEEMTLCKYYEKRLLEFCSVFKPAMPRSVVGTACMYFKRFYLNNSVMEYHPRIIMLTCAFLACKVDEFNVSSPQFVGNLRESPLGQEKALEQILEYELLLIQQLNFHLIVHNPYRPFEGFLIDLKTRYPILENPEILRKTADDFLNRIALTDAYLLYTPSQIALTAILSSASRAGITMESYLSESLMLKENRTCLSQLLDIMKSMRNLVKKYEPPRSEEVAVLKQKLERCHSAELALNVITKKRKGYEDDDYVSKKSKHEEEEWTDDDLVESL
T1 sequence (Q05397 whole entry): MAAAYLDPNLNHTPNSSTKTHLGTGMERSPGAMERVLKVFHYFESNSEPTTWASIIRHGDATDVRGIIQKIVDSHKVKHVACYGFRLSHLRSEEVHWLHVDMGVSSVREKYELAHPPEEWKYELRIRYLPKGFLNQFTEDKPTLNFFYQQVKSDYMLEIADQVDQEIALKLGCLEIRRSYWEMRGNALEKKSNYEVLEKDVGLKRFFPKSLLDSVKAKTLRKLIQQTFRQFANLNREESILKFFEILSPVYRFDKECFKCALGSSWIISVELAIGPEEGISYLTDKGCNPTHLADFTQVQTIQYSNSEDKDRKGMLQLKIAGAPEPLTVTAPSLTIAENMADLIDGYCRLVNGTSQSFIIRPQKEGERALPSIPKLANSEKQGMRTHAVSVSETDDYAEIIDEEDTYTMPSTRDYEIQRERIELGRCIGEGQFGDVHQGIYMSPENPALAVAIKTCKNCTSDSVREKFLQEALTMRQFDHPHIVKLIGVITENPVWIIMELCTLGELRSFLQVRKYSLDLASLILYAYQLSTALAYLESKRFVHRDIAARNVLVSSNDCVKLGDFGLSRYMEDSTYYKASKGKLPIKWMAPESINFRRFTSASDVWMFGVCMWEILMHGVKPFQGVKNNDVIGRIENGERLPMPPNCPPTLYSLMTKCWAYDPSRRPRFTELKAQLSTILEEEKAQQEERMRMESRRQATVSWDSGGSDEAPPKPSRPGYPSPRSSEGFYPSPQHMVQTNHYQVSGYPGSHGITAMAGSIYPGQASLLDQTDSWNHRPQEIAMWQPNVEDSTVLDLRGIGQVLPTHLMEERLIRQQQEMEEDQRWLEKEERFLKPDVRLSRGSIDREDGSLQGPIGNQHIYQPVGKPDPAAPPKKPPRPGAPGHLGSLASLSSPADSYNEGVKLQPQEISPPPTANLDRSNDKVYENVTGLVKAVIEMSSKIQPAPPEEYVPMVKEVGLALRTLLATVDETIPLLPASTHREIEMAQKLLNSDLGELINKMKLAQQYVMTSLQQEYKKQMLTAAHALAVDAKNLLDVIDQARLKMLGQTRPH

SMILES	inhibition at 10 µM [1] [%]	inhibition at 20 µM [2] [%]
CCN(CC)CCNC(=O)c1ccc(Nc2ncc3nnn(Cc4ccc(N(C)C)cc4)c3n2)cc1 [Compound 69, N-(2-Diethylamino-ethyl)-4-[3-(4-dimethylamino-benzyl)-3H-[1,2,3]triazolo[4,5-d]pyrimidin-5-ylamino]-benzamide]	27	-11.4
CC(C)(C)OC(=O)N1CCC(CNc2ncc3nnn(-c4ccc5c(c4)CCC5)c3n2)CC1 [Compound 6, 4-[(3-Indan-5-yl-3H-[1,2,3]triazolo[4,5-d]pyrimidin-5-ylamino)-methyl]-piperidine-1-carboxylic acid tert-butyl ester]	73	28.9
CCN(CC)CCNC(=O)c1ccc(Nc2ncc3nnn(Cc4nc5ccccc5[nH]4)c3n2)cc1 [Compound 71, 4-[3-(1H-Benzoimidazol-2-ylmethyl)-3H-[1,2,3]triazolo[4,5-d]pyrimidin-5-ylamino]-N-(2-diethylamino-ethyl)-benzamide]	27.5	52.8
CN(C)CC(O)COc1ccc(Nc2ncc3nnn(-c4ccc(N5CCOCC5)cc4)c3n2)cc1 (centres unmarked) [Compound 16, 1-Dimethylamino-3-{4-[3-(4-morpholin-4-yl-phenyl)-3H-[1,2,3]triazolo[4,5-d]pyrimidin-5-ylamino]-phenoxy}-propan-2-ol]	50.5	83.1
CCCCCOc1ccc(Nc2ncc3nnn(-c4ccc5c(c4)CCC5)c3n2)cc1 [Compound 5, (3-Indan-5-yl-3H-[1,2,3]triazolo[4,5-d]pyrimidin-5-yl)-(4-pentyloxy-phenyl)-amine]	12.4	25.9
c1cc(Nc2ncc3nnn(-c4cccc(-c5cnco5)c4)c3n2)cc(-c2cnco2)c1 [Compound 85, (3-Oxazol-5-yl-phenyl)-[3-(3-oxazol-5-yl-phenyl)-3H-[1,2,3]triazolo[4,5-d]pyrimidin-5-yl]-amine]	47.8	9.49
CCOC(=O)c1cccc(Nc2ncc3nnn(-c4ccc5c(c4)CCC5)c3n2)c1 [Compound 26, 3-(3-Indan-5-yl-3H-[1,2,3]triazolo[4,5-d]pyrimidin-5-ylamino)-benzoic acid ethyl ester]	13	25.9
O=C(NCCCN1CCCC1=O)c1cccc(Nc2ncc3nnn(-c4ccc5c(c4)CCC5)c3n2)c1 [Compound 80, 3-(3-Indan-5-yl-3H-[1,2,3]triazolo[4,5-d]pyrimidin-5-ylamino)-N-[3-(2-oxo-pyrrolidin-1-yl)-propyl]-benzamide]	33.9	17.9
CCCCNS(=O)(=O)c1cccc(Nc2ncc3nnn(-c4ccc(N5CCN(Cc6ccccc6)CC5)cc4)c3n2)c1 [Compound 54, 3-{3-[4-(4-Benzyl-piperazin-1-yl)-phenyl]-3H-[1,2,3]triazolo[4,5-d]pyrimidin-5-ylamino}-N-butyl-benzene-sulfonamide]	15.2	20.5
CCCCNS(=O)(=O)c1cccc(-n2nnc3cnc(Nc4cc(OC)c(OC)c(OC)c4)nc32)c1 [Compound 34, N-Butyl-3-[5-(3,4,5-trimethoxy-phenylamino)-[1,2,3]triazolo[4,5-d]pyrimidin-3-yl]-benzene-sulfonamide]	25	19
CN1CCN(CCCNC(=O)c2cccc(Nc3ncc4nnn(-c5ccc6c(c5)CCC6)c4n3)c2)CC1 [Compound 81, 3-(3-Indan-5-yl-3H-[1,2,3]triazolo[4,5-d]pyrimidin-5-ylamino)-N-[3-(4-methyl-piperazin-1-yl)-propyl]-benzamide]	58.1	99.7
COc1cc(-n2nnc3cnc(Nc4ccc5[nH]ncc5c4)nc32)cc(OC)c1OC [Compound 43]	33.3	11.8
CN(C1CCCCC1)S(=O)(=O)c1ccccc1Nc1ncc2nnn(-c3ccc(N4CCN(Cc5ccccc5)CC4)cc3)c2n1 [Compound 55, 2-{3-[4-(4-Benzyl-piperazin-1-yl)-phenyl]-3H-[1,2,3]triazolo[4,5-d]pyrimidin-5-ylamino}-N-cyclohexyl-N-methyl-benzene-sulfonamide]	10.8	-6.2
CCN(CC)CCNC(=O)c1ccc(Nc2ncc3nnn(-c4cc[nH]n4)c3n2)cc1 [Compound 66]	87.2	68.1
CN(Cc1ccccc1Nc1ncc2nnn(-c3ccccc3CN(C)C3CCCCC3)c2n1)C1CCCCC1 [Compound 21, {2-[(Cyclohexyl-methyl-amino)-methyl]-phenyl}-(3-{2-[(cyclohexyl-methyl-amino)-methyl]-phenyl}-3H-[1,2,3]triazolo[4,5-d]pyrimidin-5-yl)-amine]	19	23.3
CN(C)CC(O)COc1ccc(Nc2ncc3nnn(C4CCCC(C(=O)O)C4)c3n2)cc1 (centres unmarked) [Compound 31, 3-{5-[4-(3-Dimethylamino-2-hydroxy-propoxy)-phenylamino]-[1,2,3]triazolo[4,5-d]pyrimidin-3-yl}-cyclohexanecar-boxylic acid]	21.4	32.9
CN(C)CC(O)COc1ccc(Nc2ncc3nnn(-c4cccc(C#N)c4)c3n2)cc1 (centres unmarked) [Compound 10, 3-{5-[4-(3-Dimethylamino-2-hydroxy-propoxy)-phenylamino]-[1,2,3]triazolo[4,5-d]pyrimidin-3-yl]-benzonitrile]	64.7	11.5
CCN(CC)CCNC(=O)c1ccc(-n2nnc3cnc(Nc4ccc5c(c4)CCC5)nc32)cc1 [Compound 19, N-(2-Diethylamino-ethyl)-4-[5-(indan-5-ylamino)-[1,2,3]triazolo[4,5-d]pyrimidin-3-yl]-benzamide]	68.8	-63.7
CCN(CC)CCNC(=O)c1ccc(Nc2ncc3nnn(-c4ccc5c(c4)CCC5)c3n2)cc1 [Compound 22, N-(2-Diethylamino-ethyl)-4-(3-indan-5-yl-3H-[1,2,3]triazolo[4,5-d]pyrimidin-5-ylamino)-benzamide]	98.9	96.9
CN(C)CC(O)COc1ccc(Nc2ncc3nnn(-c4ccc(F)c(F)c4)c3n2)cc1 (centres unmarked) [Compound 11, 1-{4-[3-(3,4-Difluoro-phenyl)-3H-[1,2,3]triazolo[4,5-d]pyrimidin-5-ylamino]-phenoxy}-3-dimethylamino-propan-2-ol]	65.3	56
CN(C)CC(O)COc1ccc(Nc2ncc3nnn(-c4ccc5c(c4)Cc4ccccc4-5)c3n2)cc1 (centres unmarked) [Compound 17, 1-Dimethylamino-3-{4-[3-(9H-fluoren-2-yl)-3H-[1,2,3]triazolo[4,5-d]pyrimidin-5-ylamino]-phenoxy}-propan-2-ol]	86.8	53.8
CCOC(=O)Cc1ccc(Nc2ncc3nnn(-c4ccc5c(c4)CCC5)c3n2)cc1 [Compound 25, [4-(3-Indan-5-yl-3H-[1,2,3]triazolo[4,5-d]pyrimidin-5-ylamino)-phenyl]-acetic acid ethyl ester]	30	21
c1cc(OCCCN2CCOCC2)ccc1Nc1ncc2nnn(-c3ccc4c(c3)CCC4)c2n1 [Compound 91, (3-Indan-5-yl-3H-[1,2,3]triazolo[4,5-d]pyrimidin-5-yl)-[4-(3-morpholin-4-yl-propoxy)-phenyl]-amine]	10.4	48.7
CNC(=O)c1cccc(Nc2ncc3nnn(-c4cccc(-c5ccnc(C)n5)c4)c3n2)c1 [Compound 37, N-Methyl-3-{3-[3-(2-methyl-pyrimidin-4-yl)-phenyl]-3H-[1,2,3]triazolo[4,5-d]pyrimidin-5-ylamino}-benzamide]	-7	-1.1
CCN(CC)CCNC(=O)c1ccc(Nc2ncc3nnn(C4CCc5ccccc54)c3n2)cc1 (centres unmarked) [Compound 61, N-(2-Diethylamino-ethyl)-4-(3-indan-1-yl-3H-[1,2,3]triazolo[4,5-d]pyrimidin-5-ylamino)-benzamide]	85.5	79.4
CN(C)c1ccc(/C=C/c2ccc(Nc3ncc4nnn(-c5ccc6c(c5)CCC6)c4n3)cc2)cc1 [Compound 7, {4-[2-(4-Dimethylamino-phenyl)-vinyl]-phenyl}-(3-indan-5-yl-3H-[1,2,3]triazolo[4,5-d]pyrimidin-5-yl)-amine]	-5	38.7
CN(C)CC(O)COc1ccc(Nc2ncc3nnn(-c4ccc(C5CCCCC5)cc4)c3n2)cc1 (centres unmarked) [Compound 15, 1-{4-[3-(4-Cyclohexyl-phenyl)-3H-[1,2,3]triazolo[4,5-d]pyrimidin-5-ylamino]-phenoxy}-3-dimethylamino-propan-2-ol]	80.5	76
CN(C)CC(O)COc1ccc(Nc2ncc3nnn(-c4ccc5ncsc5c4)c3n2)cc1 (centres unmarked) [Compound 14, 1-[4-(3-Benzothiazol-6-yl-3H-[1,2,3]triazolo[4,5-d]pyrimidin-5-ylamino)-phenoxy]-3-dimethylamino-propan-2-ol]	76.8	42.2
